Measured values reported in ChEMBL document CHEMBL1201862, “PubChem BioAssay data set” (2004).
Calls of active or inactive are those of the source.

Key:
BJ [1] = test: cytotoxicity toward BJ-TERT-LT-ST fibroblasts, dose response, cell-based, RAS-independent, luminescence (AID 1935); assay type: functional; settings: Homo sapiens;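 note: BJ fibroblasts immortalized with TERT plus LT and ST oncogenes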
[2] = Luminescence Cell-Based Dose Response HTS to Identify Inhibitors of 5'UTR Stem-Loop Driven Prion Protein mRNA Translation in H4 Neuroglioblastoma Cells. [Related pubchem assays: 1827 (Project Summary), 1813 (Primary HTS)]; assay type: functional
BJ [3] = test: cytotoxicity toward Ras-transformed BJeLR fibroblasts, dose response, cell-based, alamar blue fluorescence, cherrypicked samples (AID 2631); assay type: functional; settings: Homo sapiens;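 note: confirmatory dose-response assay in RAS-dependent BJ fibroblasts engineered with TERT, LT and ST, with cytotoxicity read by fluorescence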
[4] = inhibitors of SNCA 5'UTR-driven reporter translation, confirmation, H4 neuroglioma cells, luminescence (AID 1988); assay type: functional, cell-based
[5] = cytotoxicity toward DRD oncogenic fibroblasts, dose response, cell-based, non-viral oncogenic, luminescence (AID 1934); assay type: functional; settings: Homo sapiens
[6] = target: T1, Microphthalmia-associated transcription factor (Homo sapiens, UniProt O75030); test: TRPM1 promoter luciferase signal decrease, dose response, MITF inhibitor project, cell-based, SK-MEL-5, cherry-picked, set 3 (AID 493073); assay type: functional
T1 sequence (O75030 whole entry): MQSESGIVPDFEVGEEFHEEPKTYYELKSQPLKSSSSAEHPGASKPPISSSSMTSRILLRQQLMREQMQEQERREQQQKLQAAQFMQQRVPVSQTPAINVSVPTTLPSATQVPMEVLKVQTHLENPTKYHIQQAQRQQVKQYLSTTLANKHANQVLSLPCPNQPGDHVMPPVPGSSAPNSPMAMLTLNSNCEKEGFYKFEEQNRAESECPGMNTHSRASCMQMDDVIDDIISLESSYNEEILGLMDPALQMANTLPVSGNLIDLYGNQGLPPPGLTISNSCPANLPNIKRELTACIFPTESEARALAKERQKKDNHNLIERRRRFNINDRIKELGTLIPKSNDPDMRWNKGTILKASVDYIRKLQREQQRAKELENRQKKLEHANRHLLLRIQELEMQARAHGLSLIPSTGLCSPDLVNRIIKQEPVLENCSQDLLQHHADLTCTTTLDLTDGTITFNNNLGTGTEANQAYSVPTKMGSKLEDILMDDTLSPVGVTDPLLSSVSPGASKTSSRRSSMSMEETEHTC

[7] = inhibitors of SNCA 5'UTR-driven translation, confirmation, luminescence, H4 neuroglioblastoma cells, dose confirmation (AID 2454); assay type: functional, cell-based;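 note: H4 neuroglioblastoma cells carrying an alpha-synuclein 5'UTR luciferase reporter; potency for inhibition of the luciferase signal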
cells [8] = assay type: functional, cell-based
BJ [9] = test: cells; assay type: functional, cell-based; settings: Homo sapiens
BJ [10] = test: cytotoxicity toward BJ-TERT fibroblasts, dose response, cell-based, RAS-independent, luminescence (AID 1933); assay type: functional; settings: Homo sapiens
[11] = luciferase reporter signal reduction – luminescence, H4-C neuroglioblastoma cells, dose response (AID 2458); assay type: functional, cell-based;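 note: H4 neuroglioblastoma cells stably carrying a luciferase reporter gene fusion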
[12] = cytotoxicity in MIN6 insulinoma cells, dose response, cytotoxicity control, cell-based, mouse insulinoma (AID 2122); assay type: functional;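 note: confirmatory high-throughput counterscreen run to flag cytotoxic compounds; mouse MIN-6 beta cells carrying an insulin promoter eGFP reporter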
[13] = insulin promoter down-regulators in MIN6 cells, imaging, high-content screening, mouse beta cells (AID 1628); assay type: functional
HeLa = test: HeLa cell cytotoxicity, dose response, cytotoxicity control for MITF activator project, CellTiter-Glo luminescence, cherry-pick samples (AID 540259); assay type: functional, cell-based; settings: Homo sapiens
[14] = target: T2, Ubiquitin-conjugating enzyme E2 N (Homo sapiens, UniProt P61088); assay type: functional
T2 sequence (P61088 whole entry): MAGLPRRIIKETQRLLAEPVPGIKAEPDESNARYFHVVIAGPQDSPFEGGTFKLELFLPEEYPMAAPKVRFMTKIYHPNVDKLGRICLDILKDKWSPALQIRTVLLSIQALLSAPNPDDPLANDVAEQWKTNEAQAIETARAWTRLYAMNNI

[15] = target: T2, Ubiquitin-conjugating enzyme E2 N; assay type: functional; remark: listed apart in the source
Bcl-2-related protein A1 = target: T3, Bcl-2-related protein A1 (Mus musculus, UniProt Q07440); assay type: functional;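 note: confirmatory dose–response counterscreen on Bfl-1, used to check hits from a UBC13 polyubiquitin inhibitor campaign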
T3 sequence (Q07440 whole entry): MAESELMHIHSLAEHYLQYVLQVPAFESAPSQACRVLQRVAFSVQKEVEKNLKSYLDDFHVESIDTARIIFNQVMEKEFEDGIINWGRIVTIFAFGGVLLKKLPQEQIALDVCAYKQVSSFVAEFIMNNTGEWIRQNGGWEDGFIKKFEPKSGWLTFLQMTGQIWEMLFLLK

INS1 = test: beta cell apoptosis inhibitors, cytokine rescue, dose response, luminescence, retest (AID 449756); assay type: functional, cell-based; settings: Rattus norvegicus;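 note: cell death triggered by IL-1 beta plus TNF-alpha plus IFN-gamma mixture; protective hits raise ATP signal compared with cytokine alone wells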
[16] = Luminescence Cell-Based Dose Retest to Confirm Inhibitors of Cancer Stem Cells. [Related pubchem assays (depositor defined):AID2717, AID2721]; assay type: functional; settings: Homo sapiens
[17] = microbe, parasite or virus in culture; assay type: functional; settings: Mycobacterium tuberculosis
[18] = cytotoxicity in HMLE control line with eGFP shRNA, dose response, counter-screen for HMLE_sh_ECad selective toxicity project, cell-based, HMLE_sh_eGFP, luminescence (AID 463074); assay type: functional, Homo sapiens;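 note: HMLE human mammary epithelial cells expressing control shRNA against eGFP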
Paired box protein Pax-8 = Paired box protein Pax-8 (Homo sapiens, UniProt Q06710); test: inhibitors of PAX8-driven TPO luciferase reporter, dose response, RMG-I cells, cherry-pick (AID 687027); assay type: functional, cell-based;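 note: luciferase reporter driven by Pax8 target thyroperoxidase promoter measured by SteadyGlo luminescence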
Chain of Paired box protein Pax-8 (Q06710 whole entry): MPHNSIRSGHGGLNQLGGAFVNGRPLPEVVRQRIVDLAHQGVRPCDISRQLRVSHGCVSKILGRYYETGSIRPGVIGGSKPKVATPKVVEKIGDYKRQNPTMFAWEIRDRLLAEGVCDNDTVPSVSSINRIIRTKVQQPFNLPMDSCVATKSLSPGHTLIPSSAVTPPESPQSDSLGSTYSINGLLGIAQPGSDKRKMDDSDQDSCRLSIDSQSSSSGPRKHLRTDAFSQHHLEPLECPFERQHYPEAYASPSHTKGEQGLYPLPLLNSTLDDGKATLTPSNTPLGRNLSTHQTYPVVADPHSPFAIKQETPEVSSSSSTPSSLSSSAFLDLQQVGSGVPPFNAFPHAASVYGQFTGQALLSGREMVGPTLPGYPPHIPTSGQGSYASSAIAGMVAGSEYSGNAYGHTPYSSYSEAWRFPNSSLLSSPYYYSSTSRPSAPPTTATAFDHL

[19] = control 3'UTR Renilla luciferase suppression, dose response, counter-screen for Shn3 inhibitor project, cell-based, Clone20-Shn3RL, cherry-picked (AID 624133); assay type: functional
[20] = Shn3 3'UTR reporter inhibitors, dose response, cell-based, Clone20 osteoblasts, firefly luciferase, cherry-picked (AID 624132); assay type: functional;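 note: firefly luciferase luminescence from reporter carrying the Shn3 3'UTR in osteoblasts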
[21] = HepG2 cell cytotoxicity, dose response, cytotoxicity control for Shn3 inhibitor project, CellTiter-Glo, cherry-picked (AID 624134); assay type: functional, cell-based
[22] = target: T4, Voltage-gated N-type calcium channel alpha-1B subunit/Amyloid beta A4 precursor protein-binding family A member 1 (Homo sapiens, UniProt Q00975+Q02410); assay type: protein assay
T4 sequence (Q00975 whole entry): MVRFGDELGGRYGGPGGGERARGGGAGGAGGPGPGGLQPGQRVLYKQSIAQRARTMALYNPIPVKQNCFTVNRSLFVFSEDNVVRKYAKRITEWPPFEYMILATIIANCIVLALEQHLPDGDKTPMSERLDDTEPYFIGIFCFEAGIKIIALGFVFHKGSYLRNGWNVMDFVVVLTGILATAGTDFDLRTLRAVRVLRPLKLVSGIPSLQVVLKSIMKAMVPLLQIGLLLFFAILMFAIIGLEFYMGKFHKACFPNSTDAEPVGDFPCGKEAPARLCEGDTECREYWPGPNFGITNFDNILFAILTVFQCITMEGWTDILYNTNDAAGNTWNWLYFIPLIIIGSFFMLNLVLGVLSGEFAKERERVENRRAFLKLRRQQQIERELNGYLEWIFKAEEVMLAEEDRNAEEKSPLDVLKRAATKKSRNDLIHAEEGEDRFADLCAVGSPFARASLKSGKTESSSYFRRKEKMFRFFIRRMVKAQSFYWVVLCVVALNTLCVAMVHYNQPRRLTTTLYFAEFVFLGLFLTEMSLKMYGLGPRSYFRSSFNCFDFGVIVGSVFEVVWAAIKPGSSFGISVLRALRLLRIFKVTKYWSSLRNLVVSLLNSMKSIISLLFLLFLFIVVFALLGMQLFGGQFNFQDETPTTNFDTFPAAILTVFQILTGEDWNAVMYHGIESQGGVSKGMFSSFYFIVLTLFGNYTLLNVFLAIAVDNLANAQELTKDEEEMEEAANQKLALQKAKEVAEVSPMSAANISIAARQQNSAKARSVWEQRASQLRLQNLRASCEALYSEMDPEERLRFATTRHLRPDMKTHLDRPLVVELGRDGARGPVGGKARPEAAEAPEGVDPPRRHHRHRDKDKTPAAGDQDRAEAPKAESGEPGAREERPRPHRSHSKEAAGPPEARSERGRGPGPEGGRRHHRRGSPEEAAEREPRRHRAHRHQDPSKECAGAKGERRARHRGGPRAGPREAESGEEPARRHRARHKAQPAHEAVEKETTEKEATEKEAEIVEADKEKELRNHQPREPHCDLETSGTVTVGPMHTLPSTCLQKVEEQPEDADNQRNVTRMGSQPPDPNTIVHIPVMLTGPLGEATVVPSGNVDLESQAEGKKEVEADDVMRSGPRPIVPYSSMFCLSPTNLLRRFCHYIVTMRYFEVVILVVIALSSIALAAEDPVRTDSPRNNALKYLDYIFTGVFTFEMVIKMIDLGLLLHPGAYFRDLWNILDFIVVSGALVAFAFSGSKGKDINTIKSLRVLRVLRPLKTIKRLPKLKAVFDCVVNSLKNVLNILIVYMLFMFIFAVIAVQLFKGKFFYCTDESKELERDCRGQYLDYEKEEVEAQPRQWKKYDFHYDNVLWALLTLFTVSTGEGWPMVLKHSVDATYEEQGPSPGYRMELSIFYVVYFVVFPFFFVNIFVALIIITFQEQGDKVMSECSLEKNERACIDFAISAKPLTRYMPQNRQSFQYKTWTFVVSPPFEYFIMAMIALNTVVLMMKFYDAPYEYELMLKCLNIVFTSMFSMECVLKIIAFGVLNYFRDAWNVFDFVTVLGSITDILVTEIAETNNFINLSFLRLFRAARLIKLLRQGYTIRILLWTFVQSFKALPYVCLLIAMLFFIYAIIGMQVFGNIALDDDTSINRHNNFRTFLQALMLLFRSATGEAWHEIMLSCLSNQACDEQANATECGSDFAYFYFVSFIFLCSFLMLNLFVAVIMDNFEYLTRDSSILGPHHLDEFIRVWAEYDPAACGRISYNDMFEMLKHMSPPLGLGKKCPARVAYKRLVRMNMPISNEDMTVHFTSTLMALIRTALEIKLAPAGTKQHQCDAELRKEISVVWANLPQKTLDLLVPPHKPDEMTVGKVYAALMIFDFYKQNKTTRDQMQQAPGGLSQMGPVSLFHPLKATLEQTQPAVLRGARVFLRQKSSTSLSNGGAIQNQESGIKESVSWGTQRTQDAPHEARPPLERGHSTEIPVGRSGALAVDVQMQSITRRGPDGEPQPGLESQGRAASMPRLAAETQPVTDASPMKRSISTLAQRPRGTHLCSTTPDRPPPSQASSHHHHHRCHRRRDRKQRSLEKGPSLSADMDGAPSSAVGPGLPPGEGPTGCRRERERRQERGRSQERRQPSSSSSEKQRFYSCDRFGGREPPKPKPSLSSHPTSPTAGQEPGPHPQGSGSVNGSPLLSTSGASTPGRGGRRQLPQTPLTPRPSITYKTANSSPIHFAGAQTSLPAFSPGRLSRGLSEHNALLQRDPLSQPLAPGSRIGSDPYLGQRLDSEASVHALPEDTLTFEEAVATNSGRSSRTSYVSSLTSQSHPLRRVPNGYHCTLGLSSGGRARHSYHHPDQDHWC
T4 sequence (Q02410 whole entry): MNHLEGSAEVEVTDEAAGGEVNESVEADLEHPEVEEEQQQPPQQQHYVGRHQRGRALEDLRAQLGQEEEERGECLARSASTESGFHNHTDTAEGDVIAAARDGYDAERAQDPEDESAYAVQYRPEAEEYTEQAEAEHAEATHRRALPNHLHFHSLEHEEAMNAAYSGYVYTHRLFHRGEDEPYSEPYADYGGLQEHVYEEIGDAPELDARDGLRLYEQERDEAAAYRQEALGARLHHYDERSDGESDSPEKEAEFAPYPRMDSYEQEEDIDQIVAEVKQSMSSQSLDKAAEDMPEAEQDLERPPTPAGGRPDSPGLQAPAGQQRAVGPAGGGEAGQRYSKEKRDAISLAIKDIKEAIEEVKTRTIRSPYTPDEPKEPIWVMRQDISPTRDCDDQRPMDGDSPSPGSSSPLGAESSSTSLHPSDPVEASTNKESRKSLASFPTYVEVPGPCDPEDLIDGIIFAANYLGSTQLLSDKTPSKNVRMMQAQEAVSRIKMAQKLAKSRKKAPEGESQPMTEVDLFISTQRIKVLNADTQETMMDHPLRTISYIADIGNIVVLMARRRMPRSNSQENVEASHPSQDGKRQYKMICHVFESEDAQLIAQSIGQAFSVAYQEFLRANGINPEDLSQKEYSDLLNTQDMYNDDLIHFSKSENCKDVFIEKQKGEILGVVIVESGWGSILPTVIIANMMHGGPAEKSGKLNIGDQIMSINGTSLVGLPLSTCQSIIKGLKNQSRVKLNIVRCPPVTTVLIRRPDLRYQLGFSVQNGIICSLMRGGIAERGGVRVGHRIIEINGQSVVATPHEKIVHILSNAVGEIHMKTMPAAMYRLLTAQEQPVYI

[23] = target: T4, Voltage-gated N-type calcium channel alpha-1B subunit/Amyloid beta A4 precursor protein-binding family A member 1; assay type: protein assay; remark: listed apart in the source
[24] = inhibitors of firefly luciferase expression or activity, dose response, H4 neuroglioma cells, luminescence (AID 1990); assay type: functional, cell-based
HT-1080 = test: cytotoxicity in HT1080 fibrosarcoma cells, cell-based, fluorescence readout (AID 620); assay type: functional; settings: Homo sapiens
[25] = target: Luciferin 4-monooxygenase (Photinus pyralis, UniProt P08659); test: Counter Screen for Luciferase-based Assay Positives. [Related pubchem assays: 620, 618, 411 ]
Chain of Luciferin 4-monooxygenase (P08659 whole entry): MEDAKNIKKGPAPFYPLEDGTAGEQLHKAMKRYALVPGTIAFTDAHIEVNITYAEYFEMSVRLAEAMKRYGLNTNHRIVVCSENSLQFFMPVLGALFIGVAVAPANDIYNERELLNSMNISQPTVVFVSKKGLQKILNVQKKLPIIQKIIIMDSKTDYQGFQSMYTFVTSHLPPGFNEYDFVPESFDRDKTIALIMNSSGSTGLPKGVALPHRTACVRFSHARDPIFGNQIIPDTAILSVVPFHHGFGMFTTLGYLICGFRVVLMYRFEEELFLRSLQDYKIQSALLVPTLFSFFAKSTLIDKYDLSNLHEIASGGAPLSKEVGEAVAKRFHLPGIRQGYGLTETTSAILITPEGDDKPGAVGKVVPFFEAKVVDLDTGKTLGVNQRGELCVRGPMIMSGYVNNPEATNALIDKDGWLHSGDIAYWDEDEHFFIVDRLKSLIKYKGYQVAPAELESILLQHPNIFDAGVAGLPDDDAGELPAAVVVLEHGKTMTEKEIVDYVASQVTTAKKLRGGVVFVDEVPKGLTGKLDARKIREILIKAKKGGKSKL

cells [26] = assay type: functional
[27] = THP-1 cell cytotoxicity, dose response, cytotoxicity control for non-replicating M. tuberculosis project (AID 489025); assay type: functional
[28] = cytotoxicity in KRAS-transformed pancreatic duct cells, primary screen, cell-based, fluorescence, HTS (AID 431); assay type: functional; settings: Homo sapiens;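 note: cell line used: HPDE-C7K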
[29] = Vero E6 cell cytotoxicity, dose response, cytotoxicity control for non-replicating M. tuberculosis project, secondary assay (AID 492998); assay type: functional, VeroE6; settings: Vero C1008
[30] = cytotoxicity in HPDE-C7 cells, cell-based, fluorescence, HTS (AID 430); assay type: functional; settings: Homo sapiens
[31] = HepG2 cell cytotoxicity, dose response, cytotoxicity control for non-replicating M. tuberculosis project (AID 489018); assay type: functional; settings: Mycobacterium tuberculosis
[32] = target: T5, Rac GTPase-activating protein 1 (Homo sapiens, UniProt Q9H0H5); test: MgcRacGAP GTPase-activating activity inhibitors, confirmation, biochemical, ADP Hunter fluorescence, primary and confirmatory (AID 624330); assay type: functional
T5 sequence (Q9H0H5 whole entry): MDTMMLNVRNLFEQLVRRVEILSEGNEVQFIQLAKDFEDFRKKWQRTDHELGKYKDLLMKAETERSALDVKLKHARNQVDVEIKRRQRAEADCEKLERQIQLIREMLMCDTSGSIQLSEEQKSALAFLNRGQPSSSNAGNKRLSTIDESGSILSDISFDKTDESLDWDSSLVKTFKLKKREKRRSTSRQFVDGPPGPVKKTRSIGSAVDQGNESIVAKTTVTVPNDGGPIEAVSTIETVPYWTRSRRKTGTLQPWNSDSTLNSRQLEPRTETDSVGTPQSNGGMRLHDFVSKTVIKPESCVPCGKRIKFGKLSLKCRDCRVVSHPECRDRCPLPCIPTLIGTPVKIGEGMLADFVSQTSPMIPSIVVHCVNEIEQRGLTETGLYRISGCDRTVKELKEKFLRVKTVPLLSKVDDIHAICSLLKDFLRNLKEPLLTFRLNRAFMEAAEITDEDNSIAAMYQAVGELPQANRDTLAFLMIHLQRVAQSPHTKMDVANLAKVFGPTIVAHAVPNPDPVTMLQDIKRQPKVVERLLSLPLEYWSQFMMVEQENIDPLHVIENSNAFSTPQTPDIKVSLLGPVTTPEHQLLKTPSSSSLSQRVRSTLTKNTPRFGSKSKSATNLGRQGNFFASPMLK

Cytochrome P450 3A4 = Cytochrome P450 3A4 (Homo sapiens, UniProt P08684);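 note: CYP3A4 tested as one member of a cytochrome P450 panel screen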
Chain of Cytochrome P450 3A4 (P08684 whole entry): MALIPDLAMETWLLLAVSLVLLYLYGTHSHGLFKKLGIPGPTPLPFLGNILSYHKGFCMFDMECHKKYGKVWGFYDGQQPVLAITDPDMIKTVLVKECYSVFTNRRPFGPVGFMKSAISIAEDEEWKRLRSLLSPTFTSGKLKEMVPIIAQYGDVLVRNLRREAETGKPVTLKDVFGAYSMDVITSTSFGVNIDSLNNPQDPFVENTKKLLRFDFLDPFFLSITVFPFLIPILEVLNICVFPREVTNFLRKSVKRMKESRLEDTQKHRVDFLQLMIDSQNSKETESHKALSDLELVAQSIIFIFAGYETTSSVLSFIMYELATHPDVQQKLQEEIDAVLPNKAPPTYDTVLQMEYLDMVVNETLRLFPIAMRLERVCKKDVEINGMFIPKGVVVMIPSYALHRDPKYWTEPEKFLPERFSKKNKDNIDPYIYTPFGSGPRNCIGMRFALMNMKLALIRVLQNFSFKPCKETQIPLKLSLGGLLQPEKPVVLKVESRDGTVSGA

SMILES: COc1cc2c(c(OC)c1OC)-c1ccc(N(C)CC(OC)OC)c(=O)cc1[C@@H](NC(C)=O)CC2
- EC50 (BJ [1]): 20 µM (inconclusive)
- EC50 [2]: 8.84 µM (active)
- EC50 (BJ [3]): 0.117 µM (active)
- EC50 [4]: < 0.1 µM (active)
- EC50 [5]: 2.35 µM (active)
- AC50 [6]: 2.04 µM (active)
- EC50 [7]: 1.22 µM (active)
- EC50 (cells [8]): > 12 µM (not active)
- EC50 (BJ [9]): 3.06 µM (active)
- EC50 (BJ [10]): 2.59 µM (inconclusive)
- EC50 [11]: > 12 µM (not active)

SMILES: COc1ccc(-c2c3c(nc4sc5c(O)nc(C)nc5c24)CCC3)cc1
- IC50 [12]: > 16 µM (inactive)
- IC50 [13]: 0.847 µM (active)

SMILES: Nc1ccc(O)c2c(=O)cc(-c3ccccc3Cl)oc12
- AC50 (HeLa): 79.6 µM (active)

SMILES: CCOc1ccc(N(C(=O)c2snc(C(N)=O)c2N)C(C(=O)NCC2CCCO2)c2c[nH]c3ccccc23)cc1 (centres undefined)
- IC50 [14]: 11.1 µM (active)
- IC50 [15]: 5.73 µM (active)
- IC50 (Bcl-2-related protein A1): > 20 µM (inactive)

SMILES: CCCCn1cnc2c(c(-c3ccccc3)c(-c3ccccc3)n2Cc2ccco2)c1=N
- AC50 (INS1): > 260 µM (inactive)
- EC50 (BJ [1]): 11.1 µM (inconclusive)
- AC50 [16]: 49.8 µM (active)
- CC50 [17]: > 40 µM (active)
- EC50 (BJ [3]): 76.5 µM (active)
- EC50 [5]: 9.06 µM (active)
- AC50 [18]: 50.9 µM (active)
- EC50 (BJ [9]): 36.1 µM (active)
- EC50 (BJ [10]): 7.71 µM (active)
- AC50 (Paired box protein Pax-8): 9.7 µM (active)

SMILES: CC(CCCC(C)(C)O)NC(=O)c1cc(COc2ccc3ncccc3c2)on1 (centres undefined)
- IC50 [12]: 1.48 µM (active)
- AC50 (INS1): 4.37 µM (active)
- IC50 [13]: 1.96 µM (active)
- AC50 [19]: 1.06 µM (active)
- AC50 [20]: 1.75 µM (active)
- AC50 [21]: 3.65 µM (active)

SMILES: CCC(=O)Nc1ccc(Nc2nc(Cl)nc(Nc3ccc(NC(=O)CC)cc3)n2)cc1
- IC50 [22]: 12.8 µM (active)
- IC50 [23]: > 50 µM (inactive)

SMILES: COc1ccc(C(=O)Nn2c(SCC(=O)NCc3ccccc3)nc3ccccc3c2=O)cc1
- IC50 [14]: 19.4 µM (active)
- EC50 [24]: 9.49 µM (active)
- IC50 [15]: > 20 µM (inactive)
- EC50 [2]: 9.71 µM (active)
- EC50 [4]: 0.403 µM (inconclusive)
- EC50 (HT-1080): > 50 µM (not active)
- IC50 (Bcl-2-related protein A1): > 20 µM (inactive)
- EC50 [25]: 2.51 µM (active)

SMILES: O=C1CSC(=S)N1Cc1cccnc1
- IC50 (cells [26]): 13.2 µM (active)
- EC50 (BJ [1]): > 150 µM (inconclusive)
- CC50 [27]: 3.69 µM (active)
- EC50 [5]: 9.9 µM (active)
- EC50 [28]: 3.72 µM (active)
- CC50 [29]: 4.93 µM (active)
- EC50 [30]: 5.21 µM (active)
- EC50 (BJ [9]): 21.1 µM (active)
- EC50 (BJ [10]): 5.09 µM (active)

SMILES: COC(=O)c1ccc(C(=O)NC2CC(C)(C)Cc3c2cnn3-c2ccc(F)cc2)nc1 (centres undefined)
- IC50 (cells [26]): 6.8 µM (active)
- CC50 [27]: 16.8 µM (active)
- CC50 [31]: > 20 µM (active)
- CC50 [29]: 12.2 µM (active)

SMILES: C#CCOCCOCCOCCNc1nc(N2CCN(C(=O)[C@H](CCCCN)n3cc([C@@H](N)CC(C)C)nn3)CC2)nc(N2CCN(C(=O)[C@H](CCCCN)n3cc([C@@H](N)CC(C)C)nn3)CC2)n1
- IC50 [14]: 14.4 µM (active)
- IC50 [15]: 14 µM (active)
- IC50 (Bcl-2-related protein A1): > 20 µM (inactive)
- IC50 [32]: 190 µM (active)

SMILES: Cc1s/c(=N\C(=O)c2ccco2)n(C)c1-c1ccccc1
- AC50 (Cytochrome P450 3A4): inconclusive

SMILES: CCN(CC)S(=O)(=O)c1cccc(C(=O)N/N=C(\C)c2cccs2)c1
- AC50 (HeLa): 50.9 µM (active)

SMILES: O=C(Cc1cccc2ccccc12)N/N=C/c1ccc(Sc2nc3ccccc3s2)o1
- AC50 (Cytochrome P450 3A4): inconclusive

SMILES: CC1CCN(c2ccc(/C=N/n3nnnc3N)cc2[N+](=O)[O-])CC1
- AC50 (Cytochrome P450 3A4): inconclusive
